Values after ≈ are worked out from the molar mass of the structure shown. Where two headings read alike, the source gives them in different places.
How the values were obtained:
[1] = test system: Puccinia arachidis; experiment: Leaf disk assay; details: Puccinia arachidis (leaf disc assay)
[2] = test system: C. albicans ATCC-90028; experiment: MIC versus reference Candida strains (broth micro dilution); set-up: MICs (100% inhibition): unit not given beside the values; details: for MIC: Candida albicans
[3] = test system: M. grisea; assay type: cell-based; details: sterile water with different concentrations of test compound
[4] = test system: C. parapsilosis ATCC-90018; experiment: MIC versus reference Candida strains (broth micro dilution); set-up: MICs (100% inhibition): unit not given beside the values; details: for MIC: Lodderomyces parapsilosis
[5] = test system: C. albicans SC5314; experiment: as above; assay type: cell-based
[6] = test system: Colletotrichum gloeosporioides (mango strain); experiment: In vitro mycelial growth inhibition, poisoned plate; assay type: cell-based; details: 5 μg/ml
Procedure: (§1) Growth of fungi was carried out in potato dextrose agar media at […], and test compound was added at different concentrations and at pH 5.8 for compound X″ and at pH 7.0 for its potassium salt, compound XII″, with a water control instead of test compound. Radial mycelial growth was measured at regular intervals 4, 8, 12 and 16 days for slow growing fungi and at 3, 6 and 8 days for fast growing fungi. When the mycelia reached the end of the plate, measurements were stopped. Morphological changes in the hyphal growth and sporulation patterns were also observed. For dose response studies a range of concentrations and a range of inhibition obtained falling below and above 50% inhibition (see Table 23 below)

[7] = test system: Botrytis cinerea; experiment: as above; assay type: cell-based; details: 2.5 μg/ml
Procedure: as §1

[8] = test system: Alternaria solani; experiment: as above; assay type: cell-based; details: 50 μg/ml
Procedure: as §1

[9] = test system: Colletotrichum gloeosporioides (chili strain); experiment: as above; assay type: cell-based; details: 5 μg/ml
Procedure: as §1

[10] = test system: C. krusei ATCC-6258; experiment: MIC versus reference Candida strains (broth micro dilution); set-up: MICs (100% inhibition): unit not given beside the values; details: for MIC: Pichia kudriavzevii
[11] = test system: Uncinula necator; experiment: Leaf disk assay; details: Uncinula necator (leaf disc assay)
Procedure: Leaf disk assay was carried out by the cavity well plate method for powdery mildew disease of grapes. Leaf disks of 14 mm in diameter were cut with a cork borer from the healthy leaves (second and third from the tip) of grapevine plants, and were dipped in 100 μl of each test compound at different concentrations for two minutes, as in treatment details shown below. The control leaf disks were dipped only in sterile water for two minutes. The compound treated leaf disks were placed, abaxial side up, in TC-24 well plates containing water agar medium. The disks were inoculated by placing 20 μl of inoculum (1-5×10^6 spores/ml) on the centre of the disk. After inoculation, the cavity well plates were incubated at 20° C. for 10 days. After incubation, the powdery mildew lesions on the leaf disks were rated to 0-9 scale, in which, 0 was no visible symptoms and 9 represented more than 50% leaf area with mildew growth/lesion. Percent disease index (PDI) was calculated as follows: […]
After the observation, the conidia were washed from the leaf disks in known volume of a fixative solution of ethanol-formaldehyde-acetic acid (90:5:5, v/v/v) and counted with a hemocytometer.

[12] = test system: Plasmopara viticola; assay type: cell-based; set-up: dose or concentration left out as unconfirmed; details: Plasmopara viticola (spore germination)
[13] = test system: C. albicans ATCC-24433; experiment: MIC versus reference Candida strains (broth micro dilution); set-up: MICs (100% inhibition): unit not given beside the values; details: for MIC: Candida albicans
[14] = test system: C. glabrata ATCC-90030; experiment: as above; set-up: MICs (100% inhibition): unit not given beside the values; details: for MIC: Nakaseomyces glabratus
[15] = test system: Colletotrichum gloeosporioides; experiment: Paper disc in the path of pathogen growth, growth and sporulation; assay type: cell-based; details: compound on sterile paper disc
[16] = test system: Magnaporthe grisea; experiment: microbe, parasite or virus in culture; assay type: cell-based; details: Pyricularia oryzae, read-out: % Mycelial growth Inhibition
[17] = test system: C. tropicalis ATCC-750; experiment: MIC versus reference Candida strains (broth micro dilution); set-up: MICs (100% inhibition): unit not given beside the values; details: for MIC: Candida tropicalis
[18] = test system: Botrytis cinerea; experiment: Changes in the hyphal tips; assay type: cell-based; details: compound in the media, 2 μg/ml
From the text: Apical dominance is an important criterion for growth of hyphae of fungi: at the apical tip of the mycelia branching is not seen near the growing tip. Apical dominance is maintained but branching of hyphae will start at sub-apical point, a distance away from the growth point. Under abnormal conditions of stress, apical dominance is lost, extensive branching begins, resulting in the growth of the fungal mycelia being arrested. When the test compound is incorporated in the media in which the fungi is present, hyphal tip splitting and branching is seen with loss of apical dominance and polarity. […] Hyphae from the inoculated disc start growing against gravity and are thicker than the normal hyphae seen in the control (the two upper pictures).

[19] = test system: C. parapsilosis ATCC-22019; experiment: MIC versus reference Candida strains (broth micro dilution); set-up: MICs (100% inhibition): unit not given beside the values; details: for MIC: Lodderomyces parapsilosis
[20] = test system: Pythium aphanidermatum; experiment: In vitro mycelial growth inhibition, poisoned plate; assay type: cell-based; details: 50 μg/ml
[21] = test system: Macrophomina phaseolina; experiment: as above; assay type: cell-based; details: 100 μg/ml
[22] = test system: Fusarium oxysporum; experiment: Mycelial growth inhibition, disc diffusion assay; assay type: cell-based
[23] = test system: Botryodiplodia theobromae; experiment: In vitro mycelial growth inhibition, poisoned plate; assay type: cell-based; details: Lasiodiplodia theobromae, 50 μg/ml
[24] = test system: Sclerotium rolfsii; experiment: as above; assay type: cell-based; details: Agroathelia rolfsii, 50 μg/ml
[25] = test system: Rhizoctonia solani; experiment: as above; assay type: cell-based; details: 50 μg/ml
[26] = test system: Fusarium verticillioides; experiment: as above; assay type: cell-based; details: 50 μg/ml

In the case of O=C([O-])CCCCCCCCCC#CC#Cc1ccco1.[K+] [Compound XII″, Potassium 14-(furan-2-yl)tetradeca-11,13-diynoate], the “Reduction in % disease index/germination” value ([1]; 10 μg/ml) is reported as 67%, the “Reduction in % disease index/germination” value ([1]; 20 μg/ml) is reported as 75% and the MIC ([2]; ATCC90028) is reported as 0.01 µg/mL. For the same compound, the “spores that did not germinate” value [3] was “more than 50%”, the MIC ([4]; ATCC90018) was 5.12 µg/mL and the MIC [5] was 0.01 µg/mL. It also gave an inhibition at 5 µg/mL [6] of 28%, an inhibition at 2.5 µg/mL [7] of 76% and an inhibition at 50 µg/mL [8] of 42%. The inhibition at 5 µg/mL [9] was 10%, the MIC ([10]; ATCC6258) was 0.64 µg/mL and the “Reduction in % disease index/germination” value ([11]; 10 μg/ml) was 65%. The “Reduction in % disease index/germination” value ([11]; 20 μg/ml) was 100%, the “Reduction in % disease index/germination” value [12] was 93% and the MIC ([13]; ATCC24433) was 0.01 µg/mL. The MIC ([14]; ATCC90030) was 0.32 µg/mL, the “growth of the mycelia” value [15] was “the growth of the mycelia is arrested” and the “sporulation around the loaded disc” value [15] was “no sporulation observed”. For the same compound, the inhibition at 5 µg/mL [16] was 27%, the MIC ([17]; ATCC750) was 0.01 µg/mL and the “toxicity to the fungus, hyphal changes” value [18] was “toxic to the fungus Botrytis cinerea”. The MIC ([19]; ATCC22019) was greater than 10.2 µg/mL.

With O=C(O)CCCCCCCCCC#CC#Cc1ccco1 [Compound X″] the “% Mycelial Growth Inhibition” value [20] was “No inhibition”, the MIC breakpoints ([2]; C. albicans ATCC 90028, CLSI M27-A3, growth inhibition of 100%, 35° C., 24 hrs) was 0.02 µg/mL (≈ 0.0698 µM) and the “MICs (100% inhibition)” value ([2]; C. albicans ATCC 90028, NCCLS M27A, 35° C., 24 hrs) was 20. For the same compound, the MIC ([2]; ATCC90028, read-out: minimal inhibitory concentrations) was 0.02 µg/mL (≈ 0.0698 µM), the MIC breakpoints ([4]; C. parapsilosis ATCC 90018, CLSI M27-A3, growth inhibition of 100%, 35° C., 24 hrs) was greater than 10.24 µg/mL and the “MICs (100% inhibition)” value ([4]; C. parapsilosis ATCC 90018, NCCLS M27A, 35° C., 24 hrs) was greater than 10240. The MIC ([4]; ATCC90018, read-out: minimal inhibitory concentrations) was greater than 10.2 µg/mL, the inhibition at 100 µg/mL [21] was 15% and the “% Mycelial Growth Inhibition” value [22] was “No inhibition”. For the same compound, the inhibition at 50 µg/mL [23] was 15%, the MIC breakpoints ([10]; C. krusei ATCC 6258, CLSI M27-A3, growth inhibition of 100%, 35° C., 24 hrs) was 1.28 µg/mL (≈ 4.47 µM) and the “MICs (100% inhibition)” value ([10]; C. krusei ATCC 6258, NCCLS M27A, 35° C., 24 hrs) was 1280. It also gave an MIC ([10]; ATCC6258, read-out: minimal inhibitory concentrations) of 1.28 µg/mL (≈ 4.47 µM), an inhibition at 50 µg/mL [24] of 5% and an MIC breakpoints ([13]; C. albicans ATCC 24433, CLSI M27-A3, growth inhibition of 100%, 35° C., 24 hrs) of 0.02 µg/mL (≈ 0.0698 µM). The “MICs (100% inhibition)” value ([13]; C. albicans ATCC 24433, NCCLS M27A, 35° C., 24 hrs) was 20, the MIC ([13]; ATCC24433, read-out: minimal inhibitory concentrations) was 0.02 µg/mL (≈ 0.0698 µM) and the MIC breakpoints ([14]; C. glabrata ATCC 90030, CLSI M27-A3, growth inhibition of 100%, 35° C., 24 hrs) was 2.56 µg/mL (≈ 8.94 µM). The “MICs (100% inhibition)” value ([14]; C. glabrata ATCC 90030, NCCLS M27A, 35° C., 24 hrs) was 2560, the MIC ([14]; ATCC90030, read-out: minimal inhibitory concentrations) was 2.56 µg/mL (≈ 8.94 µM) and the inhibition at 50 µg/mL [25] was 19%. For the same compound, the MIC breakpoints ([17]; C. tropicalis ATCC 750, CLSI M27-A3, growth inhibition of 100%, 35° C., 24 hrs) was 0.08 µg/mL (≈ 0.279 µM), the “MICs (100% inhibition)” value ([17]; C. tropicalis ATCC 750, NCCLS M27A, 35° C., 24 hrs) was 80 and the MIC ([17]; ATCC750, read-out: minimal inhibitory concentrations) was 0.08 µg/mL (≈ 0.279 µM). The inhibition at 50 µg/mL [26] was 14%, the MIC breakpoints ([19]; C. parapsilosis ATCC 22019, CLSI M27-A3, growth inhibition of 100%, 35° C., 24 hrs) was greater than 10.24 µg/mL and the “MICs (100% inhibition)” value ([19]; C. parapsilosis ATCC 22019, NCCLS M27A, 35° C., 24 hrs) was greater than 10240. The MIC ([19]; ATCC22019, read-out: minimal inhibitory concentrations) was greater than 10.2 µg/mL.
